From ChEMBL document CHEMBL1201862, “PubChem BioAssay data set” (2004)
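Step 1: Grow cells in 96-well plates. Step 2: Expose to compound for 48 hours at 5 concentrations. Step 3: Interpolate endpoints linearly; if unreached, use highest concentration. The concentration for 50% growth inhibition is given as GI50.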 Activity calls are given as the source filed them. Cut-off read from the data, not from the text of the source: active = GI50 up to about 1.1 µM and inactive = higher.

Tests used:
Assay in all cases: inhibition of tumour cell growth, NCI panel, 48 h
HCT-15 = system: HCT-15
NCI-H460 = system: NCI-H460
HT-29 = system: HT-29
Malme-3M = system: Malme-3M
SN12C = system: SN12C
HOP-62 = system: HOP-62
SK-MEL-2 = system: SK-MEL-2
SR = system: SR
OVCAR-5 = system: OVCAR-5
BT-549 = system: BT-549
MDA-MB-231 = system: MDA-MB-231
HCC 2998 = system: HCC 2998
MDA-N = system: MDA-N
NCI-H23 = system: NCI-H23
A498 = system: A498
U-251 = system: U-251
LOX IMVI = system: LOX IMVI
HOP-92 = system: HOP-92
TK-10 = system: TK-10
KM12 = system: KM12

| Structure (SMILES) | GI50 (HCT-15) | GI50 (NCI-H460) | GI50 (HT-29) | GI50 (Malme-3M) | GI50 (SN12C) | GI50 (HOP-62) | GI50 (SK-MEL-2) | GI50 (SR) | GI50 (OVCAR-5) | GI50 (BT-549) | GI50 (MDA-MB-231) | GI50 (HCC 2998) | GI50 (MDA-N) | GI50 (NCI-H23) | GI50 (A498) | GI50 (U-251) | GI50 (LOX IMVI) | GI50 (HOP-92) | GI50 (TK-10) | GI50 (KM12) |
| --- | --- | --- | --- | --- | --- | --- | --- | --- | --- | --- | --- | --- | --- | --- | --- | --- | --- | --- | --- | --- |
| CC(=O)NS(=O)(=O)c1ccc(NC(=O)c2c3ccccc3nc3ccccc23)cc1 | > 100 µM | > 100 µM (inactive) | > 100 µM (inactive) | 34.4 µM (inactive) | > 100 µM (inactive) | > 100 µM (inactive) | > 100 µM (inactive) | > 100 µM (inactive) | > 100 µM (inactive) | > 100 µM (inactive) | > 100 µM (inactive) | > 100 µM (inactive) | > 100 µM (inactive) | > 100 µM (inactive) | > 100 µM (inactive) | > 100 µM (inactive) | > 100 µM (inactive) | > 100 µM (inactive) | > 100 µM (inactive) | > 100 µM (inactive) |
| CC1=CC(=O)[C@@H](O)[C@]2(C)[C@H]3[C@@]4(O)OC[C@]35[C@H]([C@@H](C)[C@H]4O)[C@@H](OC(=O)C(C)(C)CO)C(=O)O[C@@H]5C[C@@H]12 | 0.292 µM | 0.0568 µM (active) | 0.207 µM (active) | < 0.01 µM (active) | 0.191 µM (active) | 0.0989 µM (active) | < 0.0453 µM (active) | 0.0155 µM (active) | 0.701 µM (active) | 0.0428 µM (active) | 0.363 µM (active) | 0.0476 µM (active) | 0.0769 µM (active) | < 0.0179 µM (active) | 1.42 µM (inactive) | 0.0281 µM (active) | < 0.012 µM (active) | 0.0887 µM (active) | 0.575 µM (active) | < 0.0271 µM (active) |
| Cc1cc(S(=O)(=O)Nc2nc(Nc3ccccc3)n[nH]2)c(SCC(=O)O)cc1Cl | > 100 µM | > 100 µM (inactive) | > 100 µM (inactive) | > 100 µM (inactive) | > 100 µM (inactive) | > 100 µM (inactive) | > 100 µM (inactive) | > 100 µM (inactive) | > 100 µM (inactive) | > 100 µM (inactive) | > 100 µM (inactive) | > 100 µM (inactive) | > 100 µM (inactive) | > 100 µM (inactive) | > 100 µM (inactive) | > 100 µM (inactive) | > 100 µM (inactive) | > 100 µM (inactive) | > 100 µM (inactive) | > 100 µM (inactive) |
| CCOC(=O)C1=C(C)N(C)C23OC4(C(=O)OC)CC2c2ccccc2C1N3C4=O (stereo not given) | 63.7 µM | 20 µM (inactive) | 51.9 µM (inactive) | > 100 µM (inactive) | 79.3 µM (inactive) | > 100 µM (inactive) | > 100 µM (inactive) | 16.5 µM (inactive) | > 100 µM (inactive) | > 100 µM (inactive) | > 100 µM (inactive) | 12.4 µM (inactive) | 14.2 µM (inactive) | > 100 µM (inactive) | > 100 µM (inactive) | > 100 µM (inactive) | > 100 µM (inactive) | > 100 µM (inactive) | > 100 µM (inactive) | 84.5 µM (inactive) |
| COC(=O)/C=C1/OC(c2ccc(Br)cc2)=C(Br)C1=O | 5.14 µM | 14.5 µM (inactive) | 4.29 µM (inactive) | 7.94 µM (inactive) | 6.92 µM (inactive) | 7.57 µM (inactive) | 10.6 µM (inactive) | 0.179 µM (active) | 6.34 µM (inactive) | 5.28 µM (inactive) | 2.43 µM (inactive) | 7.66 µM (inactive) | 5.26 µM (inactive) | 6.7 µM (inactive) | 16.6 µM (inactive) | 2.57 µM (inactive) | 3.84 µM (inactive) | 7.48 µM (inactive) | 6.59 µM (inactive) | 8.07 µM (inactive) |
| COC(=O)C1=C(C=O)C2C=CC1C2 (stereo not given) | 42.1 µM | > 100 µM (inactive) | > 66.2 µM (inactive) | 56.9 µM (inactive) | > 71.8 µM (inactive) | > 100 µM (inactive) | > 100 µM (inactive) | > 56.6 µM (inactive) | > 100 µM (inactive) | > 100 µM (inactive) | > 100 µM (inactive) | > 89.1 µM (inactive) | > 100 µM (inactive) | > 97.5 µM (inactive) | > 100 µM (inactive) | > 88.5 µM (inactive) | > 60.5 µM (inactive) | > 100 µM (inactive) | 53.8 µM (inactive) | > 100 µM (inactive) |
| COc1cccc2c1/c(=C/c1ccc(N(C)C)cc1)c1cc(-c3ccccc3)[n+](C)n12 | 0.471 µM | 0.106 µM (active) | 0.0736 µM (active) | 0.221 µM (active) | 0.0331 µM (active) | 0.218 µM (active) | 0.131 µM (active) | 0.0385 µM (active) | 0.509 µM (active) | 0.0875 µM (active) | 0.259 µM (active) | 0.0348 µM (active) | 0.0826 µM (active) | 0.131 µM (active) | 0.305 µM (active) | < 0.0158 µM (active) | 0.153 µM (active) | 0.0414 µM (active) | 0.165 µM (active) | 0.107 µM (active) |
| C[C@H]1[C@H](C)CC[C@]2(C(=O)OC3OC(CO)C(O)C(O)C3O)CC[C@]3(C)C(=CC[C@@H]4[C@@]5(C)C[C@@H](O)[C@@H]6OC(=O)c7cc(O)c(O)c(O)c7-c7c(cc(O)c(O)c7O)C(=O)OC[C@@]6(CO)[C@@H]5CC[C@]43C)[C@H]12 (stereo not given in full) | 76.7 µM | 98.6 µM (inactive) | 25.4 µM (inactive) | > 95.5 µM (inactive) | 59.7 µM (inactive) | > 100 µM (inactive) | > 100 µM (inactive) | 38.1 µM (inactive) | > 75.3 µM (inactive) | > 100 µM (inactive) | 19.5 µM (inactive) | > 100 µM (inactive) | 21.5 µM (inactive) | > 100 µM (inactive) | > 100 µM (inactive) | 60.4 µM (inactive) | 17.8 µM (inactive) | > 92.5 µM (inactive) | > 100 µM (inactive) | 58.6 µM (inactive) |
| OC1(c2cccs2)c2cccc(Cl)c2C(O)(c2cccs2)c2c(Cl)cccc21 (stereo not given) | > 100 µM | > 100 µM (inactive) | > 100 µM (inactive) | 80.2 µM (inactive) | 93.8 µM (inactive) | 57.9 µM (inactive) | 37.2 µM (inactive) | 36.6 µM (inactive) | > 100 µM (inactive) | 35.6 µM (inactive) | 18.5 µM (inactive) | > 100 µM (inactive) | > 100 µM (inactive) | 54.6 µM (inactive) | > 100 µM (inactive) | 26.6 µM (inactive) | > 100 µM (inactive) | 93.1 µM (inactive) | > 100 µM (inactive) | > 100 µM (inactive) |
